Assay results reported in patent publication US11236077B2, “Fruquintinib eutectic crystal, preparation method therefor, composition, and uses thereof” (Hangzhou SoliPharma Co., Ltd., priority 2018, dated 2022).
Values after ≈ are worked out from the molar mass of the structure shown.

Tests used:
Format in all cases: physicochemical
[1] = Crystal slurry experiment in water (crystalline form stability); details: Comparative Example 2, result in words
Method: X-ray powder diffraction (XRPD): performed on Bruker D8 Advance diffractometer. Samples were tested at room temperature. Testing conditions: 2θ scan range 3 to 40°, step size 0.02° and speed 0.2 s/step. […] The specific operation steps: respectively took 10 mg of each of the above samples and put them into a 5 ml glass bottle respectively, added 2 ml deionized water, stirred the solution at room temperature for 24 hours, then took the samples for filtration; and analyzed their crystalline forms with XRD.

Solubility in water [2] = details: for solubility in 25° C. water compared with known fruquintinib Form I: Comparative Example 1, result in words; for solubility at 1 min: deionized water, 25 °C, water, thermodynamic from solid; for solubility at 1 min / Solubility in Water: 10 mg in 10 ml deionized water, ultrasound 1 min, filtration, HPLC; for Solubility in Water: 25° C.
Method: High performance liquid chromatography (HPLC) data were collected on Ultimate 3000 and the concentration was tested with the external standard method. […] The specific operation steps: respectively took 10 mg of each of the above samples and put them into a 20 ml glass bottle respectively, added 10 ml deionized water, placed the solution at 25° C. ultrasound for 1 min, then took the samples for filtration and analyzed their concentrations using HPLC; calculated their solubility in water respectively.

[3] = Storage stability in desiccators at room temperature and RH 10% to 90%; details: room temperature, 4 months
Solubility in water [4] = details: background statement, conditions not given

Row | Compound | crystalline form after having been stirred in water for 24 hours [1] | solubility in 25° C. water compared with known fruquintinib Form I (Solubility in water [2]) | solubility at 1 min (Solubility in water [2]) | appearance, XRPD and melting point after storage [3] | Solubility in Water (Solubility in water [2]; listed as Crystalline Form of Compound A of the present invention) | solubility in water (inventors' finding) (Solubility in water [4]) | Solubility in Water (Solubility in water [2])
1 | CNC(=O)c1c(C)oc2cc(Oc3ncnc4cc(OC)c(OC)cc34)ccc12.O=C(O)/C=C\C(=O)O | kept its form unchanged | higher | 9.4 µg/mL | unchanged | – | – | –
2 | CNC(=O)c1c(C)oc2cc(Oc3ncnc4cc(OC)c(OC)cc34)ccc12.O=C(O)CC(=O)O | kept its form unchanged | higher | 12 µg/mL | unchanged | – | – | –
3 | CNC(=O)c1c(C)oc2cc(Oc3ncnc4cc(OC)c(OC)cc34)ccc12 [Known fruquintinib Crystalline Form I, 6-(6,7-dimethoxyquinazoline-4-oxy)-N,2-dimethyl benzofuran-3-formamide, reference compound] | – | – | – | – | – | poor | 2.2 µg/mL (≈ 5.59 µM)
4 | CNC(=O)c1c(C)oc2cc(Oc3ncnc4cc(OC)c(OC)cc34)ccc12 [Known fruquintinib Crystalline Form III, 6-(6,7-dimethoxyquinazoline-4-oxy)-N,2-dimethyl benzofuran-3-formamide, reference compound] | – | – | – | – | – | – | 2.1 µg/mL (≈ 5.34 µM)

Next, values leading:

Row | crystalline form after having been stirred in water for 24 hours [1] | solubility in 25° C. water compared with known fruquintinib Form I (Solubility in water [2]) | solubility at 1 min (Solubility in water [2]) | appearance, XRPD and melting point after storage [3] | Solubility in Water (Solubility in water [2]; listed as Crystalline Form of Compound A of the present invention) | solubility in water (inventors' finding) (Solubility in water [4]) | Solubility in Water (Solubility in water [2]) | Compound
5 | kept its form unchanged | higher | – | unchanged | 9.9 µg/mL (≈ 25.2 µM) | – | – | CNC(=O)c1c(C)oc2cc(Oc3ncnc4cc(OC)c(OC)cc34)ccc12 [Compound A]
6 | – | – | – | – | – | – | 2.6 µg/mL (≈ 6.61 µM) | CNC(=O)c1c(C)oc2cc(Oc3ncnc4cc(OC)c(OC)cc34)ccc12 [Known fruquintinib Crystalline Form VII, 6-(6,7-dimethoxyquinazoline-4-oxy)-N,2-dimethyl benzofuran-3-formamide, reference compound]
